Activity calls are given as the source filed them. The rule behind the calls is not given here.
Key:
AGS [1] = assay: Antiproliferative activity against human AGS cells assessed as reduction in cell viability incubated for 72 hrs by CCK-8 assay; type: functional, cell-based
MGC-803 [2] = assay: Antiproliferative activity against human MGC-803 cells assessed as reduction in cell viability incubated for 72 hrs by CCK-8 assay; type: functional, cell-based; settings: MGC-803, 72 h
[3] = Metabolic stability in human liver microsomes assessed as half life; type: ADME, Microsome
[4] = molecular target: Signal transducer and activator of transcription 3 (Homo sapiens) (UniProt P40763); assay: Inhibition of STAT3 (unknown origin) transcriptional signaling transfected in HEK293T cells at 3 uM incubated for 24 hrs by firefly luciferase gene reporter assay; type: cell-based
[5] = molecular target: Signal transducer and activator of transcription 3 (Homo sapiens) (UniProt P40763); assay: Thermal stabilization of STAT3 in human AGS cells at 1 uM at 37 to 54 degreeC incubated for 1 hr by cellular thermal shift assay; type: cell-based
AGS [6] = assay: Inhibition of colony formation in human AGS cells at 0.3 to 3 uM incubated for 10 to 15 days by crystal violet staining based assay; type: functional, cell-based; settings: dose 0.3-3 µM, time 10-15 day
MGC-803 [7] = assay: Inhibition of colony formation in human MGC-803 cells at 0.3 to 3 uM incubated for 10 to 15 days by crystal violet staining based assay; type: functional, cell-based; settings: dose 0.3-3 µM, time 10-15 day
AGS [8] = assay: Induction of apoptosis in human AGS cells assessed as viable cells at 0.3 uM incubated for 48 hrs by Annexin V-FITC/PI staining based flow cytometry method (reference value: 94.8 %); type: functional; settings: read-out: Activity
AGS [9] = assay: Induction of apoptosis in human AGS cells assessed as viable cells at 1 uM incubated for 48 hrs by Annexin V-FITC/PI staining based flow cytometry method (reference value: 94.8 %); type: functional; settings: read-out: Activity
AGS [10] = assay: Induction of apoptosis in human AGS cells assessed as viable cells at 3 uM incubated for 48 hrs by Annexin V-FITC/PI staining based flow cytometry method (reference value: 94.8 %); type: functional; settings: read-out: Activity
AGS [11] = assay: Induction of apoptosis in human AGS cells assessed as early apoptotic cells at 0.3 uM incubated for 48 hrs by Annexin V-FITC/PI staining based flow cytometry method (reference value: 2.38 %); type: functional
AGS [12] = assay: Induction of apoptosis in human AGS cells assessed as early apoptotic cells at 1 uM incubated for 48 hrs by Annexin V-FITC/PI staining based flow cytometry method (reference value: 2.38 %); type: functional
AGS [13] = assay: Induction of apoptosis in human AGS cells assessed as early apoptotic cells at 3 uM incubated for 48 hrs by Annexin V-FITC/PI staining based flow cytometry method (reference value: 2.38 %); type: functional
AGS [14] = assay: Induction of apoptosis in human AGS cells assessed as late apoptotic cells at 0.3 uM incubated for 48 hrs by Annexin V-FITC/PI staining based flow cytometry method (reference value: 2.46 %); type: functional
AGS [15] = assay: Induction of apoptosis in human AGS cells assessed as late apoptotic cells at 1 uM incubated for 48 hrs by Annexin V-FITC/PI staining based flow cytometry method (reference value: 2.46 %); type: functional
AGS [16] = assay: Induction of apoptosis in human AGS cells assessed as late apoptotic cells at 3 uM incubated for 48 hrs by Annexin V-FITC/PI staining based flow cytometry method (reference value: 2.46 %); type: functional
AGS [17] = assay: Induction of apoptosis in human AGS cells assessed as necrotic cells at 0.3 uM incubated for 48 hrs by Annexin V-FITC/PI staining based flow cytometry method (reference value: 0.32 %); type: functional
AGS [18] = assay: Induction of apoptosis in human AGS cells assessed as necrotic cells at 1 uM incubated for 48 hrs by Annexin V-FITC/PI staining based flow cytometry method (reference value: 0.32 %); type: functional
AGS [19] = assay: Induction of apoptosis in human AGS cells assessed as necrotic cells at 3 uM incubated for 48 hrs by Annexin V-FITC/PI staining based flow cytometry method (reference value: 0.32 %); type: functional
MGC-803 [20] = assay: Antitumor activity against human MGC-803 cells xenografted in BALB/c mouse assessed as inhibition of tumor volume at 15 mg/kg,ip administrated for 21 consecutive days; type: functional, organism-based
MGC-803 [21] = assay: Antitumor activity against human MGC-803 cells xenografted in BALB/c mouse assessed as inhibition of tumor weight at 15 mg/kg,ip administrated for 21 consecutive days; type: functional, organism-based
MGC-803 [22] = assay: Antitumor activity against human MGC-803 cells xenografted in BALB/c mouse assessed as tumor growth inhibition at 15 mg/kg,ip administrated for 21 consecutive days relative to control; type: functional; settings: read-out: TGI

Signal transducer and activator of transcription 3 (Homo sapiens), sequence (P40763 whole entry): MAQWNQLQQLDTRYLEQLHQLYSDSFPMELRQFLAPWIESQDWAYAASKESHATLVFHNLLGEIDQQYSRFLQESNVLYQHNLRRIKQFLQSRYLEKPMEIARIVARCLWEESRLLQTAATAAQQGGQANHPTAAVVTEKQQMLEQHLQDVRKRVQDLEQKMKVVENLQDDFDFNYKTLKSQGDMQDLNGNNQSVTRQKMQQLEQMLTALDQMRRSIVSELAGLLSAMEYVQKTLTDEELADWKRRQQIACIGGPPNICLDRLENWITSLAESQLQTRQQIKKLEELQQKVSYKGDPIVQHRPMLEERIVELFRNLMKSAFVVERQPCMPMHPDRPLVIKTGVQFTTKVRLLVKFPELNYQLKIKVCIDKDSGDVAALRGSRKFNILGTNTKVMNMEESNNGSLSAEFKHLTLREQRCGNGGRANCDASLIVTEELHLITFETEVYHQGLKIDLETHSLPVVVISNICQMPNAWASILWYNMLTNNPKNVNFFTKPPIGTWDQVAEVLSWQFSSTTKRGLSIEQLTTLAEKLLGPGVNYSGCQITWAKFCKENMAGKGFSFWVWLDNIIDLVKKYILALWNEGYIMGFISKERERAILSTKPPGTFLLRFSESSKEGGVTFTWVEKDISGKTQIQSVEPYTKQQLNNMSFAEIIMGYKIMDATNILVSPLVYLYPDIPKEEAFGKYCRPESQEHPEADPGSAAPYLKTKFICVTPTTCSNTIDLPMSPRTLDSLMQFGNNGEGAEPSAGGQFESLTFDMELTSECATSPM

IC50 (AGS [1])	IC50 (MGC-803 [2])	half-life [3]	inhibition [4]	Structure (SMILES)	also measured
3.88 µM	7.52 µM			COc1ccn2c(-c3ccc(NC(=O)c4ccc([N+](=O)[O-])o4)c(OC)c3)cnc2c1	
> 20 µM	> 20 µM			COc1ccn2c(-c3ccc(NC(=O)c4ccc([N+](=O)[O-])o4)cc3OC)cnc2c1	
0.7 µM	1.08 µM	25.7 min	Active	COc1ccn2c(-c3ccc(NC(=O)c4ccc([N+](=O)[O-])o4)cc3F)cnc2c1	
0.43 µM	1.38 µM	39.9 min	Active	COc1ccn2c(-c3ccc(NC(=O)c4ccc([N+](=O)[O-])o4)c(C)c3)cnc2c1	
0.71 µM	2.91 µM	24.2 min	Active	COc1ccn2c(-c3ccc(NC(=O)c4ccc([N+](=O)[O-])o4)c(C(F)(F)F)c3)cnc2c1	
0.72 µM	0.86 µM	28.3 min	Active	COc1ccn2c(-c3ccc(NC(=O)c4ccc([N+](=O)[O-])o4)cc3)cnc2c1	
0.73 µM	1.83 µM	36.7 min	Active	Cc1cc(-c2cnc3ccccn23)ccc1NC(=O)c1ccc([N+](=O)[O-])o1	
0.64 µM	1.03 µM	43 min	Active	COc1ccn2c(-c3ccc(NC(=O)c4ccc([N+](=O)[O-])o4)cc3C)cnc2c1	
> 20 µM	> 20 µM			COc1ccn2c(-c3ccc(NC(=O)c4ccc([N+](=O)[O-])o4)nc3)cnc2c1	
2.1 µM	2.72 µM	50.1 min	Active	COc1ccn2c(-c3ccc(NC(=O)c4ccc([N+](=O)[O-])o4)c(C)c3C(F)(F)F)cnc2c1	

The remaining lines, values behind:

Structure (SMILES)	IC50 (AGS [1])	IC50 (MGC-803 [2])	half-life [3]	inhibition [4]	also measured
O=C(Nc1ccc(-c2cnc3cc(Cl)ccn23)cc1)c1ccc([N+](=O)[O-])o1	1.7 µM	4.62 µM			
CC1(O)CCN(c2ccn3c(-c4ccc(NC(=O)c5ccc([N+](=O)[O-])o5)cc4)cnc3c2)CC1	1.53 µM	3.1 µM			
O=C(Nc1ccc(-c2cnc3cc(Br)ccn23)cc1)c1ccc([N+](=O)[O-])o1	0.56 µM	0.75 µM			
CC(=O)N1CC=C(c2ccn3c(-c4ccc(NC(=O)c5ccc([N+](=O)[O-])o5)cc4)cnc3c2)CC1	0.41 µM	0.94 µM	13.5 min	Active	
O=C(Nc1ccc(-c2cnc3cc(N4CCS(=O)(=O)CC4)ccn23)cc1)c1ccc([N+](=O)[O-])o1	2.13 µM	3.04 µM			
O=C(Nc1ccc(-c2cnc3cc(N4CCOCC4)ccn23)cc1)c1ccc([N+](=O)[O-])o1	2.22 µM	7.41 µM			
O=C(Nc1ccc(-c2cnc3cc(C4=CCN(C5COC5)CC4)ccn23)cc1)c1ccc([N+](=O)[O-])o1	0.79 µM	1.1 µM			
O=C(Nc1ccc(-c2cnc3cc(N4CCN(C5CC5)CC4)ccn23)cc1)c1ccc([N+](=O)[O-])o1	1.92 µM	1.65 µM			
O=C(Nc1ccc(-c2cnc3cc(C4=CCNCC4)ccn23)cc1)c1ccc([N+](=O)[O-])o1	1.28 µM	0.79 µM	12.2 min	Active	
O=C(Nc1ccc(-c2cnc3ccccn23)cc1)c1ccc([N+](=O)[O-])o1	0.36 µM	0.59 µM	24.7 min	Active	
O=C(Nc1ccc(-c2cnc3cc(N4CCC4)ccn23)cc1)c1ccc([N+](=O)[O-])o1	> 5 µM	> 5 µM			
CN1CCCN(c2ccn3c(-c4ccc(NC(=O)c5ccc([N+](=O)[O-])o5)cc4)cnc3c2)CC1	2.7 µM	3.58 µM			
CN1CCN(c2ccn3c(-c4ccc(NC(=O)c5ccc([N+](=O)[O-])o5)cc4)cnc3c2)CC1	2.34 µM	1.58 µM			
O=C(Nc1ccc(-c2cnc3cc(N4CCCC4)ccn23)cc1)c1ccc([N+](=O)[O-])o1	1.24 µM	1.15 µM			
O=C(Cc1c(-c2ccccc2)nc2ccccn12)Nc1ccc2c(c1)S(=O)(=O)C=C2	1.55 µM		24.2 min	Active	Activity [5]: Active; inhibition (AGS [6]): Dose-Dependent Effect; inhibition (MGC-803 [7]): Dose-Dependent Effect; viability at 0.3 µM (AGS [8]): 94.1%; viability at 1 µM (AGS [9]): 91.8%; viability at 3 µM (AGS [10]): 90.2%; Activity (AGS [11]): 2.59%; Activity (AGS [12]): 3.19%; Activity (AGS [13]): 7.98%; Activity (AGS [14]): 3.01%; Activity (AGS [15]): 4.84%; Activity (AGS [16]): 1.3%; Activity (AGS [17]): 0.29%; Activity (AGS [18]): 0.19%; Activity (AGS [19]): 0.5%; inhibition (MGC-803 [20]): Active; inhibition (MGC-803 [21]): Active; inhibition in vivo at 15 mg/kg (MGC-803 [22]): 54.5%
